# Data from paper PMC8373237 (Antimicrobial Agents and Chemotherapy, 2021).
# Where “and” joins values, the source holds several entries; their conditions need not be identical. Identical values can stand only once. Like-named read-outs stand apart in the source and are kept apart here. Marks after values point to notes of the source that are not given here. Square brackets hold non-standard residues; d marks the D form. Peptide text beside a SMILES is read from it. Nphe = O=C(O)CNCc1ccccc1; NPrGly = CCCNCC(=O)O
# Tests used:
# flagella (Fla), fliC = tested on: flagella (Fla), fliC; design: key: NE: No effect observed; settings: ref [102]; cited from earlier work
# [1] = tested on: Salmonella enterica Typhimurium SPI-1 T3SS; settings: culture-based secretion assay; ref [102]; read-out: IC50, SipC secretion; cited from earlier work
# P. aeruginosa (PAO1) = type: cell-based, Pseudomonas aeruginosa
# [2] = tested on: P. aeruginosa PA103 T3SS (ExoU secretion); type: cell-based, Pseudomonas aeruginosa
# [3] = tested on: Y. pseudotuberculosis Ysc T3SS (YopE secretion); type: cell-based, Yersinia pseudotuberculosis
# HeLa cells = assay: Cytological profiling (CP); type: cell-based; settings: concentration used in Chlamydia infection
# Protocol: Briefly, HeLa cells were cultured and seeded into 384-well plates at 2,500 cells/well. After 48 h, compounds were added using a Janus MDT robot (PerkinElmer). Two stain sets were used—stain set 1, Hoechst, EdUrhodamine, anti-phosphohistone H3, and GM130; stain set 2, Hoechst, fluorescein isothiocyanate (FITC)-alpha tubulin, rhodamine-phalloidin, and calnexin. For stain set 1, cells were incubated with 20 μM EdUrhodamine for 1 h prior to fixing in 4% formaldehyde solution in PBS for 20 min. Cells were then washed with PBS and permeabilized with 0.5% Triton X-100 in PBS for 10 min before blocking with 2% BSA in PBS solution for at least 1 h. Following this, cells were incubated with primary antibodies overnight at 4°C. The following day, excess primary antibody was washed off with PBS and Alexa-488, and Alexa-647 secondary antibodies and Hoechst solution were incubated for 1 h. Plates were washed with PBS and preserved with 0.1% sodium azide in PBS solution prior to imaging. For stain set 2, cells were fixed with a 4% formaldehyde solution in PBS for 20 min. Cells were then washed with PBS and permeabilized with 0.5% Triton X-100 in PBS for 10 min before blocking with 2% BSA in PBS solution for at least 1 h. Following this, cells were incubated with primary antibodies overnight at 4°C. […]
# [4] = tested on: Y. pseudotuberculosis twin arginine translocation (Tat) system; type: cell-based, Yersinia pseudotuberculosis; settings: culture optical density, 4 and 6 h
# [5] = tested on: P. aeruginosa PA103 T3SS (ExsE secretion); type: cell-based, Pseudomonas aeruginosa
# [6] = tested on: Salmonella flagellar T3SS (FliC, FliD secretion); type: cell-based, Salmonella enterica Typhimurium; design: key to Fla fliC (Table 2): NE: No effect observed
# [7] = tested on: C. trachomatis serovar L2 in HeLa cells; assay: Chlamydia infection of HeLa cells (primary and secondary infection); type: cell-based, Chlamydia trachomatis
# Protocol: Primary infections. HeLa cell monolayers were infected with C. trachomatis serovar L2 at a multiplicity of infection (MOI) of 1.0 in the presence of one of the following compounds at 9 μM: DMSO, 4EpDN, or 4EpDN 2Sar. Cells were incubated for 24 h in the presence of the above-listed compounds at 37°C and then fixed with 4% paraformaldehyde (PFA). Cells were stained for IncA (Chlamydia inclusion membrane marker), DNA (with DAPI), and MOMP (Chlamydia major outer membrane protein) simultaneously. This method of staining allows visualization of the inclusion independent of MOMP synthesis or transport. The percentage of cells infected (i.e., stained positively for the listed Chlamydia markers) in the presence of the compounds was quantified using confocal microscopy. Quantifications of inclusion take into account both DAPI staining and indirect immunofluoresence with an antibody to MOMP. Ten randomly selected fields of view were measured per experiment. The data represent three biological replicates.
# Secondary infections. HeLa cell monolayers were infected with C. trachomatis serovar L2 at an MOI of 1.0 in the presence of one of the following compounds at 9 μM: DMSO, 4EpDN, or 4EpDN 2Sar. Cells were incubated for 48 h in the presence of the above-listed compounds at 37°C. Infected cells were then lysed, and the lysate was applied to fresh HeLa monolayers to enumerate infectious particles. These secondary infections were fixed in 4% PFA at 24 hpi and were stained against MOMP and DNA. The infectious units per ml (IFU/ml) were calculated by averaging the number of infected cells in each of 10 randomly selected fields of view at ×40 magnification on a confocal microscope and multiplying this by the appropriate dilution and area factors. The data represent four biological replicates.
# [8] = tested on: Salmonella enterica Typhimurium SPI-1 T3SS (SipA, SipC secretion); type: cell-based
# Kinetic solubility = type: physicochemical
# Protocol: […] Then, […] of 15 mM stock compound was added to make a solution of 120 μM final concentration with 0.8% DMSO. The solution was shaken at 37°C for ∼2 h. The solution was passed over a 0.7- μM glass fiber filter. Then, the solution was diluted 1:4 in acetonitrile to crash out any proteins. The solution was centrifuged at 500 × g for 10 min. Avoiding the pellet, 10 μl of supernatant was added to a fresh plate with 90 μl of acetonitrile. The final dilution is 40 times lower. Next, 10 μl of 40× dilution of solution was injected on the Orbi-trap. A 1 μM standard was used for the ratiometric comparison, and the assay was done in triplicate.
# [9] = tested on: Y. enterocolitica Ysa T3SS (YspF secretion); type: cell-based, Yersinia enterocolitica
# Y. pseudotuberculosis = type: cell-based, Yersinia pseudotuberculosis; settings: 2xYT, 9-120 µM, 12 h
# [10] = tested on: Salmonella T3SS genes (hilA, hilD, invF, sipC, sipA, fliC); assay: mRNA quantification by qPCR of T3SS genes; type: cell-based, Salmonella enterica Typhimurium; settings: 9 µM, 2 h and 4 h
# Protocol: Samples were taken after 3 h of induction. Overnight Salmonella cultures were subcultured into fresh LB with 0.3 M NaCl at 37°C in the presence of 9 μM 4EpDN, 4EpDN 2Sar, or equivalent DMSO. Samples were taken after 2 h and 4 h of induction. Samples were stored in RNAprotect reagent (Qiagen) and processed within a week. Total RNA was isolated using an RNAeasy kit (Qiagen) according to the manufacturer’s instructions, followed by two rounds of Turbo DNase (Thermo Fisher scientific) treatment. A total of 2 μg of RNA was used to make cDNA, and quantitative PCRs (qPCRs) were run with SYBR green PCR master mix (Applied Biosystems). DNA helicase (dnaB) and 16S rRNA genes were used as a reference for P. aeruginosa and Salmonella samples, respectively. Two to three technical replicates were averaged for each sample. Results were analyzed using Bio-Rad CFX software.
compound,measurement,setting,value
CCCCCCCC(=O)c1c(O)cc(O)cc1CC(=O)OCC [Cytosporone B],Fla fliC,"flagella (Fla), fliC",NE^d
same,IC50,[1],6250 nM
"CCCN1CC(=O)N(Cc2ccccc2)CC(=O)N[C@@H](CC(C)C)C(=O)N[C@@H]([C@@H](C)CC)C(=O)N[C@H](CC(C)C)C(=O)N[C@H](Cc2ccccc2)C1=O [4EpDN, 4-EpD1,2N] (cyclo(I[dL][dF][NPrGly][Nphe]L))",bacterial viability in broth culture,P. aeruginosa (PAO1),did not affect bacterial viability
same,fold more potent than its parental compound,[2],2 fold
same,inhibition of ExoU secretion,[2]; 9 µM,~75%
same,inhibition of ExoU secretion,[2]; 60 µM,~75%
same,IC50,"[2]; read-out: IC50, inhibition of secretion of T3SS effector ExoU",3900 nM
same,"lowest known inhibitory concentration (∼), YopE secretion","[3]; Table 2, Ysc, culture-based secretion assay",∼7.5 YopE^b μM
same,"T3SS effector secretion inhibited, fold",[3]; same concentration as YscF staining (60 μM),4 fold
same,"changes to actin cytoskeleton, Golgi network, endoplasmic reticulum, microtubule network",HeLa cells,did not show any gross changes
same,"growth of SufI-β-lactamase Tat reporter bacteria in penicillin G / Tat inhibition, in words",[4],does not inhibit the Tat secretion system
same,inhibition of ExsE secretion,[5]; 9 µM,did not significantly inhibit
same,inhibition of ExsE secretion,[5]; 60 µM,~40%
same,Fla fliC (Table 2),[6],NE^d
same,concentration inhibiting FliC secretion,[6],≥ 60 µM
same,inhibition of formation of infectious progeny,"[7]; 9 μM, EBs collected at 48 hpi, fresh monolayers 24 h",~98%
same,decrease of primary inclusion formation,"[7]; 9 μM, HeLa cells, 24 hpi",~50%
same,"lowest known inhibitory concentration (∼), cell-based infection assay, Chlamydia","[7]; Table 2, Chlamydiales",∼9^c μM
same,IC50,"[8]; read-out: IC50, SipAC secretion (SPI-1 T3SS)",1000 nM
same,IC50,"[8]; read-out: IC50, SipC secretion",~1000 nM and ~800 nM
same,solubility kinetic,Kinetic solubility,13 µM
same,solubility,Kinetic solubility; DMEM (no antibiotics),12 µM
same,solubility,Kinetic solubility; M9,10 µM
same,IC50,[9],16100 nM
same,"secretion of YspF, in words",[9],inhibited secretion of YspF in a dose-dependent manner
same,bacterial viability in broth culture,Y. pseudotuberculosis,did not affect bacterial viability
same,"expression of T3SS genes (qPCR), in words",[10],nor did it impact T3SS gene transcription
